For `COc1ccc(S(=O)(=O)N2CC=CC(c3ccccc3)C2C(=O)NO)cc1` (stereo not shown) [Example 2, N-hydroxy-1-(4-methoxybenzenesulfonyl)-3-phenyl-1,2,3,6-tetrahydropyridine-2-carboxamide], the melting point is 151 to 154 °C (dec.).

The values are drawn from US6509337B1, “Arylsulfonyl Hydroxamic Acid derivatives as MMP and TNF inhibitors” (Pfizer Inc., priority 1997, dated 2003).
